The values that follow come from US10245256B2, “Nitroxides for use in treating or preventing diabetes and obesity” (Mitos Pharmaceuticals, Inc., priority 2005, dated 2019).

In assay [1] the test system is Keratinocyte Growth Factor (Fibroblast Growth Factor 7). The experiment in a line: Gene expression in cardiac tissue of mice fed Tempol, chip-based microarray. The following applies: 5 mg/g of food from 14 to 31 months. Type of assay: in vivo. As for the experimental part: To assess the effects of Tempol on gene expression, Tempol was administered to experimental mice at a dose of 5 mg/g of food from 14 months to 31 months after birth. Mice receiving the same food without the addition of Tempol were used as a negative control. At the age of 31 months, the experimental animals were sacrificed and the hearts were surgically removed. The expression of a broad spectrum of genes in the cardiac tissue was assessed using chip-based microarray technology. Such chips are well known in the art and are widely used to assess gene expression.

The test system of assay [2] is Adiponectin, C1Q and collagen domain containing (ADIPOQ). The experiment in a line: Gene expression in adipose tissue of mice fed Tempol, Affymetrix MOE430A 2.0 array. Type of assay: in vivo. The conditions noted are these: 5 g/kg of diet from 12 through 15 months. The method, then: In a further gene expression study, Tempol was administered to experimental mice at a dose of 5 g/kg of diet from 12 months through 15 months. Mice receiving the same diet without the addition of Tempol were used as a negative control. At the age of 15 months, the adipose tissue of the experimental animals was obtained. The expression of a broad spectrum of genes in the adipose tissue was assessed using chip-based microarray technology. Specifically, in this case an Affymetrix MOE430A 2.0 array, containing 12,960 genes, was employed. Such chips are well known in the art and are widely used to assess gene expression.

Assay [3] has as its system keratinocyte growth factor. Nature of the assay: Protein level of keratinocyte growth factor in pancreatic ductal cells of patient after Tempol treatment. Format: in vivo, human. The conditions noted are these: 1500 mg per day for 180 days. As for the experimental part:
(§1) A 70-kilogram diabetic patient is administered a dose of 1500 mg of Tempol per day for 180 days. This may be administered in a single dose, or may be administered as a number of smaller doses over a 24-hour period: for example, three 500-mg doses at eight-hour intervals. Following treatment, the protein level of keratinocyte growth factor in the pancreatic ductal cells, and the serum level of adiponectin, is increased.
(§2) A 70-kilogram patient at risk for but not yet diagnosed with diabetes is administered a dose of 1500 mg of Tempol per day for 180 days. This may be administered in a single dose, or may be administered as a number of smaller doses over a 24-hour period: for example, three 500-mg doses at eight-hour intervals. Following treatment, the protein level of keratinocyte growth factor in the pancreatic ductal cells, and the serum level of adiponectin, is increased.

The next assay relates to adiponectin. Nature of the assay: Serum level of adiponectin of patient after Tempol treatment. Type of assay: in vivo, human. The conditions noted are these: 1500 mg per day for 180 days. The method, then:
as §1, §2

The mark [4] stands for this setting: 70-kilogram patient at risk for but not yet diagnosed with diabetes.

With `CC1(C)CC(O)CC(C)(C)N1[O]` [Tempol, 4-hydroxy-2,2,6,6-tetramethylpiperidine-1-oxyl], the “KGF expression, TEMPOL-treated mouse tp51” value in assay [1] (microarray signal, individual animal tp51) worked out at 13. Moreover, the “KGF expression, TEMPOL-treated mouse tp52” value in assay [1] (microarray signal, individual animal tp52) is recorded as 52. Also, the “KGF expression, TEMPOL-treated mouse tp53” value in assay [1] (microarray signal, individual animal tp53) turned out to be 96. The “Fold change of KGF expression” value in assay [1] (TEMPOL-treated vs control mice) is 2.1 fold. In assay [2] (microarray signal, control mean 27698), the “Mean adiponectin expression (Tempol-treated mice)” value was determined as 33876. The “Fold change of adiponectin expression” value in assay [2] (Tempol-treated vs control mice, P value 0.003) is given as “increase in expression”. The “protein level of keratinocyte growth factor in the pancreatic ductal cells” value in assay [3] (70-kilogram diabetic patient) and in assay [3] (setting [4]) was “increased” each time. Moreover, the “serum level of adiponectin” value with adiponectin (70-kilogram diabetic patient) and in the assay with adiponectin (setting [4]) was “increased” throughout.
